The record followed here is ChEMBL document CHEMBL1127894, “The synthesis of 2,2,24- trisubstituted oxetanes as new azole antifungal agents” (1994).

Experiment [1] has as its system Mus musculus. Briefly: Geometri mean CFUs(log 10) for Candida albicans infected mice treated with 50 mg/kg of compound. The class given is functional.
Experiment [2] has as its system Mus musculus. The experiment can be described thus: Compound was tested for percent survival against Candida albicans C-43 at 50 mg/kg (iv) in mice. The class given is functional.
Experiment [3] relates to Candida albicans. Briefly: Tested for inhibition of yeast to mycelial transformation against six strains of Candida albicans at concentration of <0.03 ug/mL at pH 7.0; Active. The class given is functional, organism-based.
Experiment [4] relates to Candida albicans. Briefly: Tested for inhibition of yeast to mycelial transformation against Candida stellatoidea at concentration of <0.03 ug/mL at pH 7.0; Active. The class given is functional, organism-based.
In experiment [5] the test system is Candida parapsilosis. Briefly: Minimum inhibitory concentration against two strains of Candida parapsilosis. The class given is functional. The settings on record: Lodderomyces parapsilosis.
Experiment [6] relates to Mus musculus. Briefly: Compound was tested for in vivo activity against 1x 10ex6 CFU of Candida albicans C-43 infected mice at dose of 10 mg/kg; Inactive. Set-up: dose 10 mg/kg. The class given is functional, organism-based.
In experiment [7] the test system is Candida albicans. The experiment can be described thus: Tested for inhibition of yeast to mycelial transformation against Candida albicans C-43 at concentration of <0.03 ug/mL at pH 7.0; Active. The class given is functional, organism-based.
Experiment [8] concerns Mus musculus. Briefly: Compound was tested for in vivo activity against Candida albicans C-43 in mice at dose of 10 mg/kg; Inactive. The class given is functional, organism-based. Details: dose 10 mg/kg.
Experiment [9] concerns Mus musculus. Briefly: Compound was tested for in vivo activity against Candida albicans C-43 in mice. The class given is functional.
Experiment [10] concerns Candida albicans. The experiment can be described thus: Tested for inhibition of yaest to mycelial transformation against Candida albicans C-43 at concentration of <0.03 ug/mL at pH 7.0; Active. The class given is functional, organism-based.
The test system of experiment [11] is Candida albicans. Briefly: In vitro inhibition of yeast to mycelial transformation against Candida albicans C-43 at concentration of <0.03 ug/mL at pH 7.0; Active. The class given is functional, organism-based.
Experiment [12] has as its system Candida albicans. The experiment can be described thus: In vitro inhibition of yeast to mycelial transformation against Candida stellatoidea at concentration of <0.03 ug/mL at pH 7.0; Active. The class given is functional, organism-based.
The subject of experiment [13] is Candida albicans. Briefly: In vitro inhibition of yeast to mycelial transformation against six strains of Candida albicans at concentration of <0.03 ug/mL at pH 7.0; Active. The class given is functional, organism-based.
Experiment [14] has as its system Candida albicans. The experiment can be described thus: Tested for inhibition of yeast to mycelial transformation against Candida stellatoidea at concentration of 16->64 ug/mL at pH 7.0; Slightly active. The class given is functional, organism-based.
For experiment [15], the system named is Candida albicans. The experiment can be described thus: Tested for inhibition of yeast to mycelial transformation against six strains of Candida albicans at concentration of 16->64 ug/mL at pH 7.0; Slightly active. The class given is functional, organism-based.
The subject of experiment [16] is Candida albicans. Briefly: Tested for inhibition of yeast to mycelial transformation against Candida albicans C-43 at concentration of 16->64 ug/mL at pH 7.0; Slightly active. The class given is functional, organism-based.
The test system of experiment [17] is Candida parapsilosis. Briefly: Minimum inhibitory concentration against two strains of C. parapsilosis; Inactive. The class given is functional, organism-based.

Structures are written as SMILES. Converted amounts (≈) assume the structure as drawn. The source made the active and inactive calls. The rule behind the calls is not given here.

Compound `CC(C)N1CCN(c2ccc(OC[C@H]3CC[C@](Cn4cncn4)(c4ccc(Cl)cc4Cl)O3)cc2)CC1` displayed an Activity in the experiment on Mus musculus [1] of 4.3. In addition, the survival at 50 mg/kg with Mus musculus [2] came out at 100%. Also, the outcome with Candida albicans [3], in the experiment with Candida albicans [4] and in the experiment on Candida albicans [7] was Active. In addition, in the experiment with Candida parapsilosis [5], the MIC was determined as 0.5 µg/mL (≈ 0.943 µM). Moreover, the result in the experiment on Mus musculus [6] was inactive.

On to `CC(C)N1CCN(c2ccc(OC[C@H]3C[C@@](Cn4cncn4)(c4ccc(Cl)cc4Cl)O3)cc2)CC1` (relative stereo), for which the result in the experiment with Mus musculus [6] was inactive.

`CC(C)N1CCN(c2ccc(OC[C@@H](O)C[C@@](O)(Cn3cncn3)c3ccc(Cl)cc3Cl)cc2)CC1`: in the experiment with Mus musculus [2], the survival at 50 mg/kg was 100%. In addition, the result with Mus musculus [8] was inactive. Moreover, the outcome in the experiment with Candida albicans [3], with Candida albicans [4] and in the experiment with Candida albicans [7] was Active. Moreover, the Activity with Mus musculus [9] is given as 4.4. In the experiment with Candida parapsilosis [5], this compound came in with a minimum inhibitory concentration (MIC) of 32 µg/mL (≈ 59.9 µM).

In the experiment with Candida parapsilosis [5], `CC(C)N1CCN(c2ccc(OC[C@@H]3C[C@@](Cn4cncn4)(c4ccc(Cl)cc4Cl)O3)cc2)CC1` (racemic) [listing 1 of 2 here] showed an MIC of 32 µg/mL (≈ 62 µM).

In turn, `CC(C)N1CCN(c2ccc(OC[C@H](O)C[C@@](O)(Cn3cncn3)c3ccc(Cl)cc3Cl)cc2)CC1` gave a survival at 50 mg/kg in the experiment with Mus musculus [2] of 100%. Also, the outcome with Candida albicans [10], with Candida albicans [3] and with Candida albicans [4] was Active. Further, in the experiment on Mus musculus [8], the outcome was inactive. Moreover, the Activity in the experiment on Mus musculus [9] turned out to be 4.2. For the same compound, the minimal inhibitory concentration (MIC) in the experiment with Candida parapsilosis [5] came out at 32 µg/mL (≈ 59.9 µM).

For the compound `CC(C)N1CCN(c2ccc(OC[C@@H]3C[C@@](Cn4cncn4)(c4ccc(Cl)cc4Cl)O3)cc2)CC1` (racemic) [listing 2 of 2 here], the outcome in the experiment on Candida albicans [11], in the experiment on Candida albicans [12] and in the experiment on Candida albicans [13] was Active.

On to `CC(C)N1CCN(c2ccc(OC[C@@H]3C[C@@](Cn4cncn4)(c4ccc(Cl)cc4Cl)O3)cc2)CC1` (relative stereo), for which the result in the experiment with Mus musculus [6] was inactive.

For the compound `CC(C)N1CCN(c2ccc(OC[C@H]3C[C@@](Cn4cncn4)(c4ccc(Cl)cc4Cl)O3)cc2)CC1` (racemic), the Activity result with Candida albicans [14], with Candida albicans [15] and in the experiment on Candida albicans [16] was “Weak activity” throughout. The MIC entry in the experiment on Candida parapsilosis [17] is “inactive”.
